PubChem BioAssay (NCI)
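All cell lines were grown in 96-well plates and treated with compound for 48 hours. TGI: concentration producing complete growth inhibition.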

Experiments:
Experiment in all cases: inhibition of tumour cell growth, NCI panel, 48 h
M14 melanoma = system: M14 melanoma
MDA-MB-231 breast = system: MDA-MB-231 breast
MALME-3M melanoma = system: MALME-3M melanoma
NCI/ADR-RES ovarian = system: NCI/ADR-RES ovarian
HCC-2998 colon = system: HCC-2998 colon
SK-MEL-2 melanoma = system: SK-MEL-2 melanoma
OVCAR-5 ovarian = system: OVCAR-5 ovarian
DU-145 prostate = system: DU-145 prostate
MOLT-4 leukemia = system: MOLT-4 leukemia
KM12 colon = system: KM12 colon
HOP-92 NSCLC = system: HOP-92 NSCLC
SF-295 CNS = system: SF-295 CNS
UACC-257 melanoma = system: UACC-257 melanoma
HOP-62 NSCLC = system: HOP-62 NSCLC
TK-10 renal = system: TK-10 renal
MCF7 breast = system: MCF7 breast
COLO 205 colon = system: COLO 205 colon
HCT-116 colon = system: HCT-116 colon
LOX IMVI melanoma = system: LOX IMVI melanoma
MDA-MB-435 = system: MDA-MB-435
SK-MEL-28 melanoma = system: SK-MEL-28 melanoma
SN12C renal = system: SN12C renal
SK-MEL-5 melanoma = system: SK-MEL-5 melanoma
HCT-15 colon = system: HCT-15 colon
U251 CNS = system: U251 CNS
UO-31 renal = system: UO-31 renal
MDA-N = system: MDA-N
PC-3 prostate = system: PC-3 prostate
A549 NSCLC = system: A549 NSCLC
CCRF-CEM leukemia = system: CCRF-CEM leukemia
NCI-H460 lung = system: NCI-H460 lung
NCI-H23 lung = system: NCI-H23 lung
CAKI-1 renal = system: CAKI-1 renal
HL-60(TB) leukemia = system: HL-60(TB) leukemia
OVCAR-4 ovarian = system: OVCAR-4 ovarian
OVCAR-8 ovarian = system: OVCAR-8 ovarian
OVCAR-3 ovarian = system: OVCAR-3 ovarian
BT-549 breast = system: BT-549 breast
EKVX NSCLC = system: EKVX NSCLC
ACHN renal = system: ACHN renal
HT29 colon = system: HT29 colon
RPMI-8226 leukemia = system: RPMI-8226 leukemia
SR leukemia = system: SR leukemia
K-562 leukemia = system: K-562 leukemia
SNB-19 CNS = system: SNB-19 CNS
IGROV1 ovarian = system: IGROV1 ovarian
SNB-75 CNS = system: SNB-75 CNS
786-0 renal = system: 786-0 renal
SK-OV-3 ovarian = system: SK-OV-3 ovarian
HS 578T breast = system: HS 578T breast
SF-539 CNS = system: SF-539 CNS
UACC-62 melanoma = system: UACC-62 melanoma
SW-620 colon = system: SW-620 colon
RXF 393 renal = system: RXF 393 renal
NCI-H226 lung = system: NCI-H226 lung
NCI-H522 lung = system: NCI-H522 lung
SF-268 CNS = system: SF-268 CNS

Measured: TGI

O=c1[nH]nc(NCc2ccccc2)c2nnn(Cc3ccccc3)c12
not listed: IGROV1 ovarian | SNB-75 CNS | 786-0 renal | SK-OV-3 ovarian | HS 578T breast | SF-539 CNS | UACC-62 melanoma | SW-620 colon | RXF 393 renal | NCI-H226 lung | NCI-H522 lung | SF-268 CNS
> 100 µM: all other assays above

O=P1(c2ccccc2)c2ccccc2-c2ccccc21
not listed: M14 melanoma | MALME-3M melanoma | NCI/ADR-RES ovarian | OVCAR-5 ovarian | U251 CNS | NCI-H460 lung | OVCAR-4 ovarian | ACHN renal | HT29 colon | SR leukemia
> 100 µM: all other assays above
